Reference: patent publication US8575091B1, “Amylin analogues and pharmaceutical compositions thereof” (Novo Nordisk A/S, priority 2012, dated 2013)
Read-outs that look alike come from different tables or passages of the source. Numbered stars: 1 amine (or outer) side, 2 acyl side, 3 side chain; on linkers, the order of the positions; unused ones are H or OH. Bridge positions count the residues as written; N and C are the ends. Side chains are listed from the residue outwards. Peptide text beside a SMILES is read from it. * marks the point of attachment. C20 diacid = O=C(O)CCCCCCCCCCCCCCCCCCC(=O)*; γGlu = O=C(O)[C@H](CCC(=O)[*:2])N[*:1]

How the values were obtained:
[1] = molecular target: T1, human amylin receptor (amylin 3(a) receptor: human calcitonin receptor + RAMP-3) (Homo sapiens, UniProt O60896+P30988); assay: Assay (II)a functional assay, human amylin receptor (CRE luciferase, BHK cells); assay type: cell-based; settings: for EC50: read-out: hAmylin-R funct. EC50
T1 construct: expressed in transfected cells
T1 sequence (P30988 25-474): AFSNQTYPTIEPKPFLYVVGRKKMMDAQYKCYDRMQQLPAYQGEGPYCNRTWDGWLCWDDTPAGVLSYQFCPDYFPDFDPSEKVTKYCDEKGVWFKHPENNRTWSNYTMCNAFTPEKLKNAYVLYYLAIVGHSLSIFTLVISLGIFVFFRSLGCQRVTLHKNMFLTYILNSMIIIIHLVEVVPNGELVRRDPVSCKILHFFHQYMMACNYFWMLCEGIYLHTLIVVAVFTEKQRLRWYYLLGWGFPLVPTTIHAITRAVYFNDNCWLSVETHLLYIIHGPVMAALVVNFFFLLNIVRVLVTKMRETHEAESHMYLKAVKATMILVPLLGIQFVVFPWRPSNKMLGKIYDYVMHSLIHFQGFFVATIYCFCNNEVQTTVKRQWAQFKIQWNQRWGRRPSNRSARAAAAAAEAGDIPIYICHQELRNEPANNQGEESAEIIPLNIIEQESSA
T1 sequence (O60896 24-148 partner): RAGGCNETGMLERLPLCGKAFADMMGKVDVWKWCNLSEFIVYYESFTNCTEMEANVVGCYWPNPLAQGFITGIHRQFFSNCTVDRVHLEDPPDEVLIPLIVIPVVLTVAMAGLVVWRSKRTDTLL

[2] = molecular target: T2, human calcitonin receptor (Homo sapiens, UniProt P30988); assay: Assay (II)a functional assay, human calcitonin receptor (CRE luciferase, BHK cells);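 further: luminescence from a CRE-driven luciferase reporter, read by single photon counting after cells were exposed to test samples for 3 h at 37 °C under 5% CO2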; assay type: cell-based; settings: read-out: hCTR funct. EC50
T2 construct: expressed in transfected cells
T2 sequence (P30988 25-474): T1 sequence (P30988 25-474)

human amylin receptor = molecular target: T3, human amylin receptor (Homo sapiens, UniProt O60896+P30988); assay: Assay (V) binding to the human amylin receptor (SPA, 125I-rat amylin); settings: human amylin receptor membranes, SPA; read-out: hAmylin-R bind IC50
T3 construct: expressed in transfected cells
T3 sequence (P30988 25-474): T1 sequence (P30988 25-474)
T3 sequence (O60896 24-148 partner): T1 sequence (O60896 24-148 partner)
Method in brief: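 SPA competition binding on membranes from Amylin 3(a)/CRE-luc cells, 35 ng/μL membranes with 0.05 mg/well beads. Buffer 50 mM Hepes pH 7.4, 1 mM CaCl2, 5 mM MgCl2, 0.1% OA, 0.02% Tween20. IC50 from one-site competition fit as affinity measure.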

[3] = molecular target: T2, human calcitonin receptor; assay: Assay (VII) binding to the human calcitonin receptor (SPA, 125I-Calcitonin); settings: read-out: hCTR bind IC50;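 further: cell membranes coupled to SPA beads, competitive displacement read by scintillation counting, IC50 derived from a one-site competition fit as a measure of receptor affinity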
[4] = Table 6, human functional selectivity (hCTR EC50 / hAmylin-R EC50)
[5] = functional assay, human amylin receptor
[6] = Table 6a, human functional selectivity (hCTR EC50 / hAmylin-R EC50), at least 5
[7] = Table 6j, hCTR funct. EC50 / hAmylin-R funct. EC50
[8] = Table 6k, hCTR funct. EC50 / hAmylin-R funct. EC50

| Ratio hCT/hAmylin funct. [1, 4] | EC50 [1, 5] | EC50 [2] | IC50 (human amylin receptor) | IC50 [3] | Ratio hCT/hAmylin funct. [1, 6] | Ratio hCT/hAmylin funct. [1, 7] | Ratio hCT/hAmylin funct. [1, 8] | Ratio hCT/hAmylin funct. ([1]; Table 6i, hCTR funct. EC50 / hAmylin-R funct. EC50) | EC50 ([1]; Table 6i, human amylin receptor functional) | SMILES |
| --- | --- | --- | --- | --- | --- | --- | --- | --- | --- | --- |
| 4.9 | 0.071 nM | 0.345 nM | 0.082 nM | 2.04 nM | – | – | – | – | – | CC[C@H](C)[C@H](NC(=O)[C@H](C)NC(=O)CNC(=O)[C@H](Cc1ccccc1)NC(=O)[C@H](CC(N)=O)NC(=O)[C@@H]1CCCN1C(=O)[C@H](CO)NC(=O)[C@H](CO)NC(=O)[C@H](Cc1c[nH]cn1)NC(=O)[C@H](CCCNC(=N)N)NC(=O)[C@H](CC(C)C)NC(=O)[C@H](Cc1ccccc1)NC(=O)[C@H](Cc1c[nH]cn1)NC(=O)[C@H](C)NC(=O)[C@H](CC(C)C)NC(=O)[C@H](CCCNC(=N)N)NC(=O)[C@H](CCC(N)=O)NC(=O)[C@@H](NC(=O)[C@H](C)NC(=O)[C@@H]1CSSC[C@H](NC(=O)[C@@H](N)CCCCNC(=O)CC[C@H](NC(=O)CCCCCCCCCCCCCCCCCCC(=O)O)C(=O)O)C(=O)N[C@@H](CC(N)=O)C(=O)N[C@@H]([C@@H](C)O)C(=O)N[C@@H](C)C(=O)N[C@@H]([C@@H](C)O)C(=O)N1)[C@@H](C)O)C(=O)N1CCC[C@H]1C(=O)N[C@@H](CO)C(=O)N[C@@H](CO)C(=O)N[C@H](C(=O)N1CCC[C@H]1C(=O)N[C@H](C(=O)NCC(=O)N1CCC[C@H]1C(=O)N[C@@H](CC(N)=O)C(=O)N[C@H](C(=O)N[C@@H](Cc1ccc(O)cc1)C(N)=O)[C@@H](C)O)C(C)C)[C@@H](C)O [Example 116] (H-K([γGlu-C20 diacid])CNTATCATQRLAHFLRHSSPNFGAIPSSTPVGPNTY-NH2; disulfide 2-7) |
| 9.7 | 0.118 nM | 1.15 nM | 0.176 nM | 17.8 nM | 9.7 | 9.7 | 9.7 | – | – | CC[C@H](C)[C@H](NC(=O)[C@H](C)NC(=O)CNC(=O)[C@H](Cc1ccccc1)NC(=O)[C@H](CC(N)=O)NC(=O)[C@@H]1CCCN1C(=O)[C@H](CO)NC(=O)[C@H](CO)NC(=O)[C@H](Cc1c[nH]cn1)NC(=O)[C@H](CCCNC(=N)N)NC(=O)[C@H](CC(C)C)NC(=O)[C@H](Cc1ccccc1)NC(=O)[C@H](C)NC(=O)[C@H](C)NC(=O)[C@H](CC(C)C)NC(=O)[C@H](CCCNC(=N)N)NC(=O)[C@H](CCC(N)=O)NC(=O)[C@@H](NC(=O)[C@H](C)NC(=O)[C@@H]1CSSC[C@H](NC(=O)[C@@H](N)CCCCNC(=O)CC[C@H](NC(=O)CCCCCCCCCCCCCCCCCCC(=O)O)C(=O)O)C(=O)N[C@@H](CC(N)=O)C(=O)N[C@@H]([C@@H](C)O)C(=O)N[C@@H](C)C(=O)N[C@@H]([C@@H](C)O)C(=O)N1)[C@@H](C)O)C(=O)N1CCC[C@H]1C(=O)N[C@@H](CO)C(=O)N[C@@H](CO)C(=O)N[C@H](C(=O)N[C@@H](CC(N)=O)C(=O)N[C@H](C(=O)NCC(=O)N[C@@H](Cc1c[nH]cn1)C(=O)N[C@@H](CC(N)=O)C(=O)N[C@H](C(=O)N[C@@H](Cc1ccc(O)cc1)C(N)=O)[C@@H](C)O)C(C)C)[C@@H](C)O [Example 93] (H-K([γGlu-C20 diacid])CNTATCATQRLAAFLRHSSPNFGAIPSSTNVGHNTY-NH2; disulfide 2-7) |
| 2.9 | 0.062 nM | 0.179 nM | 0.217 nM | 7.86 nM | – | – | – | – | – | CC[C@H](C)[C@H](NC(=O)[C@H](C)NC(=O)CNC(=O)[C@H](Cc1ccccc1)NC(=O)[C@H](CC(N)=O)NC(=O)[C@@H]1CCCN1C(=O)[C@H](CO)NC(=O)[C@H](CO)NC(=O)[C@H](Cc1c[nH]cn1)NC(=O)[C@H](CCCNC(=N)N)NC(=O)[C@H](CC(C)C)NC(=O)[C@H](Cc1ccccc1)NC(=O)[C@H](Cc1c[nH]cn1)NC(=O)[C@H](C)NC(=O)[C@H](CC(C)C)NC(=O)[C@H](CCCNC(=N)N)NC(=O)[C@H](CCC(N)=O)NC(=O)[C@@H](NC(=O)[C@H](C)NC(=O)[C@@H]1CSSC[C@H](NC(=O)[C@H](CCCNC(=N)N)NC(=O)CNC(=O)CC[C@H](NC(=O)CCCCCCCCCCCCCCCCCCC(=O)O)C(=O)O)C(=O)N[C@@H](CC(N)=O)C(=O)N[C@@H]([C@@H](C)O)C(=O)N[C@@H](C)C(=O)N[C@@H]([C@@H](C)O)C(=O)N1)[C@@H](C)O)C(=O)N1CCC[C@H]1C(=O)N[C@@H](CO)C(=O)N[C@@H](CO)C(=O)N[C@H](C(=O)N[C@@H](CC(N)=O)C(=O)N[C@H](C(=O)NCC(=O)N1CCC[C@H]1C(=O)N[C@@H](CC(N)=O)C(=O)N[C@H](C(=O)N[C@@H](Cc1ccc(O)cc1)C(N)=O)[C@@H](C)O)C(C)C)[C@@H](C)O [Example 102] ({C20 diacid-γGlu}-GRCNTATCATQRLAHFLRHSSPNFGAIPSSTNVGPNTY-NH2; disulfide 3-8) |
| – | 0.405 nM | 16.8 nM | 0.939 nM | 137 nM | – | – | – | – | – | CC[C@H](C)[C@H](NC(=O)[C@H](C)NC(=O)CNC(=O)[C@H](Cc1ccccc1)NC(=O)[C@H](CC(N)=O)NC(=O)[C@@H]1CCCN1C(=O)[C@H](CO)NC(=O)[C@H](CO)NC(=O)[C@H](Cc1c[nH]cn1)NC(=O)[C@H](CCCNC(=N)N)NC(=O)[C@H](CC(C)C)NC(=O)[C@H](Cc1ccccc1)NC(=O)[C@H](CCCNC(=N)N)NC(=O)[C@H](C)NC(=O)[C@H](CC(C)C)NC(=O)[C@H](CCCNC(=N)N)NC(=O)[C@H](CCC(N)=O)NC(=O)[C@@H](NC(=O)[C@H](C)NC(=O)[C@@H]1CSSC[C@H](NC(=O)[C@@H](N)CCCCNC(=O)CC[C@H](NC(=O)CCCCCCCCCCCCCCCCCCC(=O)O)C(=O)O)C(=O)N[C@@H](CC(N)=O)C(=O)N[C@@H]([C@@H](C)O)C(=O)N[C@@H](C)C(=O)N[C@@H]([C@@H](C)O)C(=O)N1)[C@@H](C)O)C(=O)N1CCC[C@H]1C(=O)N[C@@H](CO)C(=O)N[C@@H](CO)C(=O)N[C@H](C(=O)N[C@@H](CC(N)=O)C(=O)N[C@H](C(=O)NCC(=O)N[C@@H](CO)C(=O)N[C@@H](CC(N)=O)C(=O)N[C@H](C(=O)N[C@@H](Cc1ccc(O)cc1)C(N)=O)[C@@H](C)O)C(C)C)[C@@H](C)O [Example 83] |
| – | 0.096 nM | 5.85 nM | 0.382 nM | 22.7 nM | – | – | – | – | – | CC[C@H](C)[C@H](NC(=O)[C@H](C)NC(=O)CNC(=O)[C@H](Cc1ccccc1)NC(=O)[C@H](CC(N)=O)NC(=O)[C@@H]1CCCN1C(=O)[C@H](CO)NC(=O)[C@H](CO)NC(=O)[C@H](Cc1c[nH]cn1)NC(=O)[C@H](CCCNC(=N)N)NC(=O)[C@H](CC(C)C)NC(=O)[C@H](Cc1ccccc1)NC(=O)[C@H](CC(N)=O)NC(=O)[C@H](C)NC(=O)[C@H](CC(C)C)NC(=O)[C@H](CCCNC(=N)N)NC(=O)[C@H](CCC(N)=O)NC(=O)[C@@H](NC(=O)[C@H](C)NC(=O)[C@@H]1CSSC[C@H](NC(=O)[C@@H](N)CCCCNC(=O)CC[C@H](NC(=O)CCCCCCCCCCCCCCCCC(=O)O)C(=O)O)C(=O)N[C@@H](CC(N)=O)C(=O)N[C@@H]([C@@H](C)O)C(=O)N[C@@H](C)C(=O)N[C@@H]([C@@H](C)O)C(=O)N1)[C@@H](C)O)C(=O)N1CCC[C@H]1C(=O)N[C@@H](CO)C(=O)N[C@@H](CO)C(=O)N[C@H](C(=O)N[C@@H](CC(N)=O)C(=O)N[C@H](C(=O)NCC(=O)N[C@@H](Cc1c[nH]cn1)C(=O)N[C@@H](CC(N)=O)C(=O)N[C@H](C(=O)N[C@@H](Cc1ccc(O)cc1)C(N)=O)[C@@H](C)O)C(C)C)[C@@H](C)O [Example 113] |
| 6.8 | – | 1.28 nM | 0.403 nM | 6.31 nM | 6.8 | 6.8 | 6.8 | 6.8 | 0.189 nM | CC[C@H](C)[C@H](NC(=O)[C@H](C)NC(=O)CNC(=O)[C@H](Cc1ccccc1)NC(=O)[C@H](CC(N)=O)NC(=O)[C@@H]1CCCN1C(=O)[C@H](CO)NC(=O)[C@H](CO)NC(=O)[C@H](Cc1c[nH]cn1)NC(=O)[C@H](CCCNC(=N)N)NC(=O)[C@H](CC(C)C)NC(=O)[C@H](Cc1ccccc1)NC(=O)[C@H](CCC(=O)O)NC(=O)[C@H](C)NC(=O)[C@H](CC(C)C)NC(=O)[C@H](CCCNC(=N)N)NC(=O)[C@H](CCC(N)=O)NC(=O)[C@@H](NC(=O)[C@H](C)NC(=O)[C@@H]1CSSC[C@H](NC(=O)[C@H](CCCCN)NC(=O)CC[C@H](NC(=O)CCCCCCCCCCCCCCCCCCC(=O)O)C(=O)O)C(=O)N[C@@H](CC(N)=O)C(=O)N[C@@H]([C@@H](C)O)C(=O)N[C@@H](C)C(=O)N[C@@H]([C@@H](C)O)C(=O)N1)[C@@H](C)O)C(=O)N1CCC[C@H]1C(=O)N[C@@H](CO)C(=O)N[C@@H](CO)C(=O)N[C@H](C(=O)N[C@@H](CC(N)=O)C(=O)N[C@H](C(=O)NCC(=O)N[C@@H](CCCCN)C(=O)N[C@@H](CC(N)=O)C(=O)N[C@H](C(=O)N[C@@H](Cc1ccc(O)cc1)C(N)=O)[C@@H](C)O)C(C)C)[C@@H](C)O [Example 36] ({C20 diacid-γGlu}-KCNTATCATQRLAEFLRHSSPNFGAIPSSTNVGKNTY-NH2; disulfide 2-7) |
